According to ChEMBL document CHEMBL4619789, “RAF Kinases in Cancer: A Moving Target and Degradation Therapy” (ACS Med Chem Lett, 2020):

Columns and labels:
[1] = Protac activity at E3 ubiquitin-protein ligase/B-raf V600E mutant in human A375 cells assessed as induction of B-raf V600E degradation measured after 72 hrs by Western cellular assay; type: cell-based; conditions: A-375, 72 h
A-375 = test: Protac activity at E3 ubiquitin-protein ligase/B-raf V600E mutant in human A375 cells assessed as induction of B-raf V600E degradation measured after 72 hrs by Western cellular assay relative to control; type: cell-based

| SMILES | DC50 [1] | %max (A-375) |
| --- | --- | --- |
| O=C1CCC(N2Cc3cc(N4CC(OCC5CCN(c6ccc(-c7cnc8[nH]cc(C(=O)c9c(F)ccc(NS(=O)(=O)N%10CC[C@@H](F)C%10)c9F)c8c7)cc6)CC5)C4)ccc3C2=O)C(=O)N1 (some centres undefined) | < 10 nM | < 70% |
| Cc1ncsc1-c1ccc(CNC(=O)[C@@H]2C[C@@H](O)CN2C(=O)[C@@H](NC(=O)CN2CC(N3CCN(c4ccc(-c5cnc6[nH]cc(C(=O)c7c(F)ccc(NS(=O)(=O)N8CC[C@@H](F)C8)c7F)c6c5)cc4)CC3)C2)C(C)(C)C)cc1 | < 10 nM | > 70% |
| O=C1CCC(N2Cc3cc(/C=C/CN4CCN(c5ccc(-c6cnc7[nH]cc(C(=O)c8c(F)ccc(NS(=O)(=O)N9CC[C@@H](F)C9)c8F)c7c6)cc5)CC4)ccc3C2=O)C(=O)N1 (some centres undefined) | < 10 nM | < 70% |
| O=C1CCC(N2Cc3cc(N4CC(N5CCN(c6ccc(-c7cnc8[nH]cc(C(=O)c9c(F)ccc(NS(=O)(=O)N%10CC[C@@H](F)C%10)c9F)c8c7)cc6)CC5)C4)ccc3C2=O)C(=O)N1 (some centres undefined) | < 10 nM | < 70% |
| Cc1ncsc1-c1ccc(CNC(=O)[C@@H]2C[C@@H](O)CN2C(=O)[C@@H](NC(=O)CN2CCC(CN3CCN(c4ccc(-c5cnc6[nH]cc(C(=O)c7c(F)ccc(NS(=O)(=O)N8CC[C@@H](F)C8)c7F)c6c5)cc4)CC3)CC2)C(C)(C)C)cc1 | < 10 nM | > 70% |
| Cc1ncsc1-c1ccc([C@H](CO)NC(=O)[C@@H]2C[C@@H](O)CN2C(=O)[C@@H](c2cc(N3CCC(N4CCN(c5ccc(-c6cnc7[nH]cc(C(=O)c8c(F)ccc(NS(=O)(=O)N9CC[C@@H](F)C9)c8F)c7c6)cc5)CC4)CC3)no2)C(C)C)cc1 | 10 to 50 nM | > 70% |
| O=C1CCC(N2Cc3cc(N4CC[C@@H](N5CCN(c6ccc(-c7cnc8[nH]cc(C(=O)c9c(F)ccc(NS(=O)(=O)N%10CC[C@@H](F)C%10)c9F)c8c7)cc6)CC5)C4)ccc3C2=O)C(=O)N1 (some centres undefined) | < 10 nM | < 70% |
| Cc1ncsc1-c1ccc(CNC(=O)[C@@H]2C[C@@H](O)CN2C(=O)[C@@H](NC(=O)CN2CCN(CC3CCN(c4ccc(-c5cnc6[nH]cc(C(=O)c7c(F)ccc(NS(=O)(=O)N8CC[C@@H](F)C8)c7F)c6c5)cc4)CC3)CC2)C(C)(C)C)cc1 | < 10 nM | > 70% |
| O=C1CCC(N2Cc3cc(N4CCN(Cc5ccc(-c6cnc7[nH]cc(C(=O)c8c(F)ccc(NS(=O)(=O)N9CC[C@@H](F)C9)c8F)c7c6)cc5)CC4)ccc3C2=O)C(=O)N1 (some centres undefined) | < 10 nM | > 70% |
| Cc1ncsc1-c1ccc(CNC(=O)[C@@H]2C[C@@H](O)CN2C(=O)[C@@H](c2cc(OCCN3CCN(c4ccc(-c5cnc6[nH]cc(C(=O)c7c(F)ccc(NS(=O)(=O)N8CC[C@@H](F)C8)c7F)c6c5)cc4)CC3)no2)C(C)C)cc1 | < 10 nM | > 70% |
| O=C1CCC(N2Cc3cc(CCCN4CCC5(C4)CN(c4ccc(-c6cnc7[nH]cc(C(=O)c8c(F)ccc(NS(=O)(=O)N9CC[C@@H](F)C9)c8F)c7c6)cc4)C5)ccc3C2=O)C(=O)N1 (some centres undefined) | < 10 nM | < 70% |
| Cc1ncsc1-c1ccc([C@H](C)NC(=O)[C@@H]2C[C@@H](O)CN2C(=O)[C@@H](NC(=O)CN2CCC(CN3CCN(c4ccc(-c5cnc6[nH]cc(C(=O)c7c(F)ccc(NS(=O)(=O)N8CC[C@@H](F)C8)c7F)c6c5)cc4)CC3)CC2)C(C)(C)C)cc1 | < 10 nM | > 70% |
